Results taken from patent US8263563B2, “Furin inhibitors” (priority 2004, dated 2012).
Ends that are not written are not given here. * marks the point of attachment. Decanoyl = CCCCCCCCCC(=O)*; OPH = not defined here; CH2Cl = ClC*

Test system: lung epethalial and macrophage cells exposed to anthrax toxin (PA and FP59)
Type: cell-based

decanoyl RVKR-CMK (Decanoyl-RVKR-CH2Cl)
Protein Synthesis Inferred From ^35S incorporation: 86.9 ± 9.9%

PGluArgValArgArgOPH (PERVRR-{OPH}; not fully specified (some residues); printed as PGluArgValArgArgOPH; reading uncertain) [ERVRR-OPH]
Protein Synthesis Inferred From ^35S incorporation: 70.9 ± 8.7%
